Source: ChEMBL document CHEMBL5365460, “Structural Mechanism and Inhibitors Targeting EGFR Exon 20 Insertion (Ex20ins) Mutations” (J Med Chem, 2023)
Blank lines part the entries; values can stand above or below the molecule they belong to.

Tests used:
BaF3 [1] = assay: Antiproliferative activity against mouse BaF3 cells harboring wild type EGFR; format: functional, cell-based
[2] = Antiproliferative activity against mouse Ba/F3 EGFR-D770-N771ins_SVD cells; format: functional, cell-based
[3] = Selectivity index, ratio of IC50 for antiproliferative activity against mouse BaF3 cells harboring wild type EGFR to IC50 for antiproliferative activity against mouse Ba/F3 EGFR-V769_D770insASV cells; format: functional
[4] = Antiproliferative activity against mouse Ba/F3 EGFR-V769_D770insASV cells; format: functional, cell-based
BaF3 [5] = assay: Antiproliferative activity against mouse BaF3 cells harboring wild type EGFR incubated for 48 hrs by Cell Titer-Glo assay; format: functional, cell-based; settings: BaF3, 48 h
[6] = Antiproliferative activity against mouse Ba/F3 EGFR-V769_D770insASV cells incubated for 48 hrs by Cell Titer-Glo assay; format: functional, cell-based
[7] = Antiproliferative activity against mouse Ba/F3 EGFR-D770-N771ins_SVD cells incubated for 48 hrs by Cell Titer-Glo assay; format: functional, cell-based
BaF3 [8] = assay: Antiproliferative activity against mouse BaF3 cells harboring EGFR-D770-N771insNPG mutant incubated for 48 hrs by Cell Titer-Glo assay; format: functional, cell-based; settings: BaF3, 48 h
[9] = Antiproliferative activity against mouse Ba/F3 EGFR-H773-V774ins_NPH cells; format: functional, cell-based
[10] = Antiproliferative activity against mouse Ba/F3 EGFR-A763_Y764insFQEA cells; format: functional, cell-based
BaF3 [11] = assay: Antiproliferative activity against mouse BaF3 cells harboring wild type EGFR incubated for 3 days by Cell Titer-Glo assay; format: functional, cell-based; settings: BaF3, 72 h
[12] = Antiproliferative activity against mouse Ba/F3 EGFR-A763_Y764insFQEA cells incubated for 3 days by Cell Titer-Glo assay; format: functional, cell-based; settings: 72 h
[13] = Antiproliferative activity against mouse Ba/F3 EGFR-V769_D770insASV cells incubated for 3 days by Cell Titer-Glo assay; format: functional, cell-based; settings: 72 h
[14] = Antiproliferative activity against mouse Ba/F3 EGFR-D770-N771ins_SVD cells incubated for 3 days by Cell Titer-Glo assay; format: functional, cell-based; settings: 72 h
BaF3 [15] = assay: Antiproliferative activity against mouse BaF3 cells harboring EGFR-D770-N771insNPG mutant incubated for 3 days by Cell Titer-Glo assay; format: functional, cell-based; settings: BaF3, 72 h
[16] = Antiproliferative activity against mouse Ba/F3 EGFR-H773-V774ins_NPH cells incubated for 3 days by Cell Titer-Glo assay; format: functional, cell-based; settings: 72 h
NIH3T3 [17] = assay: Antiproliferative activity against mouse NIH/3T3 cells harboring wild type EGFR incubated for 72 hrs by Cell Titer-Glo assay; format: functional, cell-based; settings: NIH3T3, 72 h
NIH3T3 [18] = assay: Antiproliferative activity against mouse NIH/3T3 cells harboring EGFR-A763_Y764insFQEA incubated for 72 hrs by Cell Titer-Glo assay; format: functional, cell-based; settings: NIH3T3, 72 h
NIH3T3 [19] = assay: Antiproliferative activity against mouse NIH/3T3 cells harboring EGFR-V769_D770insASV incubated for 72 hrs by Cell Titer-Glo assay; format: functional, cell-based; settings: NIH3T3, 72 h
NIH3T3 [20] = assay: Antiproliferative activity against mouse NIH/3T3 cells harboring EGFR-D770-N771ins_SVD incubated for 72 hrs by Cell Titer-Glo assay; format: functional, cell-based; settings: NIH3T3, 72 h
NIH3T3 [21] = assay: Antiproliferative activity against mouse NIH/3T3 cells harboring EGFR-H773-V774ins_NPH incubated for 72 hrs by Cell Titer-Glo assay; format: functional, cell-based; settings: NIH3T3, 72 h
BaF3 [22] = assay: Antiproliferative activity against mouse Ba/F3 cells harboring EGFR-D770-N771ins_G mutant incubated for 3 days by Cell Titer-Glo assay; format: functional, cell-based; settings: BaF3, 72 h
BaF3 [23] = assay: Antiproliferative activity against mouse Ba/F3 cells harboring EGFR-H773-V774ins_PH mutant incubated for 3 days by Cell Titer-Glo assay; format: functional, cell-based; settings: BaF3, 72 h
[24] = biological target: Epidermal growth factor receptor (Homo sapiens, UniProt P00533); assay: Inhibition of wildtype EGFR (unknown origin) phosphorylation
[25] = biological target: Epidermal growth factor receptor (Homo sapiens, UniProt P00533, D770-N771INSNPG); assay: Inhibition of EGFR-D770-N771insNPG mutant (unknown origin) phosphorylation
[26] = Selectivity index, ratio of IC50 for antiproliferative activity against mouse BaF3 cells harboring wild type EGFR to IC50 for antiproliferative activity against mouse Ba/F3 EGFR-A763_Y764insFQEA cells; format: functional
[27] = Selectivity index, ratio of IC50 for antiproliferative activity against mouse BaF3 cells harboring wild type EGFR to IC50 for antiproliferative activity against mouse Ba/F3 EGFR-D770-N771ins_SVD cells; format: functional
[28] = Selectivity index, ratio of IC50 for antiproliferative activity against mouse BaF3 cells harboring wild type EGFR to IC50 for antiproliferative activity against mouse BaF3 cells harboring EGFR-D770-N771insNPG mutant; format: functional
[29] = Selectivity index, ratio of IC50 for antiproliferative activity against mouse BaF3 cells harboring wild type EGFR to IC50 for antiproliferative activity against mouse Ba/F3 EGFR-H773-V774ins_NPH cells; format: functional
[30] = Antiproliferative activity against mouse Ba/F3 EGFR-A763_Y764insFQEA cells incubated for 72 hrs by CCK-8 assay; format: functional, cell-based
[31] = Antiproliferative activity against mouse Ba/F3 EGFR-V769_D770insASV cells incubated for 72 hrs by CCK-8 assay; format: functional, cell-based
[32] = Antiproliferative activity against mouse Ba/F3 EGFR-D770-N771ins_SVD cells incubated for 72 hrs by CCK-8 assay; format: functional, cell-based
[33] = Antiproliferative activity against mouse Ba/F3 EGFR-H773-V774ins_NPH cells incubated for 72 hrs by CCK-8 assay; format: functional, cell-based
BaF3 [34] = assay: Antiproliferative activity against mouse BaF3 cells harboring EGFR exon 20 insertion mutant incubated for 72 hrs by Cell Titer-Glo assay; format: functional, cell-based; settings: BaF3, 72 h
BaF3 [35] = assay: Potency index, ratio of afatinib IC50 to test compound IC50 for antiproliferative activity against mouse BaF3 cells harboring EGFR exon 20 insertion mutant incubated for 72 hrs by Cell Titer-Glo assay; format: functional
[36] = Antiproliferative activity against human CUTO14 cells harboring EGFR V769_D770insASV mutant incubated for 72 hrs by Cell Titer-Glo assay; format: functional, cell-based; settings: CUTO14, 72 h
[37] = Antiproliferative activity against human YUL-0019 cells harboring EGFR N771delinsFH mutant incubated for 72 hrs by Cell Titer-Glo assay; format: functional, cell-based; settings: YUL-0019, 72 h
[38] = Metabolic stability in human hepatocytes assessed as intrinsic clearance measured per 10^6 cells at 100 uM measured upto 100 mins by LC-MS/MS analysis; format: ADME, cell-based, Hepatocyte; settings: read-out: CLH
[39] = Antiproliferative activity against human CUTO14 cells harboring EGFR V769_D770insASV mutant incubated for 72 hrs by MTS assay; format: functional, cell-based; settings: CUTO14, 72 h

Sequence of Epidermal growth factor receptor (Homo sapiens, UniProt P00533, D770-N771INSNPG) (P00533 whole entry, looked up, stated change not applied): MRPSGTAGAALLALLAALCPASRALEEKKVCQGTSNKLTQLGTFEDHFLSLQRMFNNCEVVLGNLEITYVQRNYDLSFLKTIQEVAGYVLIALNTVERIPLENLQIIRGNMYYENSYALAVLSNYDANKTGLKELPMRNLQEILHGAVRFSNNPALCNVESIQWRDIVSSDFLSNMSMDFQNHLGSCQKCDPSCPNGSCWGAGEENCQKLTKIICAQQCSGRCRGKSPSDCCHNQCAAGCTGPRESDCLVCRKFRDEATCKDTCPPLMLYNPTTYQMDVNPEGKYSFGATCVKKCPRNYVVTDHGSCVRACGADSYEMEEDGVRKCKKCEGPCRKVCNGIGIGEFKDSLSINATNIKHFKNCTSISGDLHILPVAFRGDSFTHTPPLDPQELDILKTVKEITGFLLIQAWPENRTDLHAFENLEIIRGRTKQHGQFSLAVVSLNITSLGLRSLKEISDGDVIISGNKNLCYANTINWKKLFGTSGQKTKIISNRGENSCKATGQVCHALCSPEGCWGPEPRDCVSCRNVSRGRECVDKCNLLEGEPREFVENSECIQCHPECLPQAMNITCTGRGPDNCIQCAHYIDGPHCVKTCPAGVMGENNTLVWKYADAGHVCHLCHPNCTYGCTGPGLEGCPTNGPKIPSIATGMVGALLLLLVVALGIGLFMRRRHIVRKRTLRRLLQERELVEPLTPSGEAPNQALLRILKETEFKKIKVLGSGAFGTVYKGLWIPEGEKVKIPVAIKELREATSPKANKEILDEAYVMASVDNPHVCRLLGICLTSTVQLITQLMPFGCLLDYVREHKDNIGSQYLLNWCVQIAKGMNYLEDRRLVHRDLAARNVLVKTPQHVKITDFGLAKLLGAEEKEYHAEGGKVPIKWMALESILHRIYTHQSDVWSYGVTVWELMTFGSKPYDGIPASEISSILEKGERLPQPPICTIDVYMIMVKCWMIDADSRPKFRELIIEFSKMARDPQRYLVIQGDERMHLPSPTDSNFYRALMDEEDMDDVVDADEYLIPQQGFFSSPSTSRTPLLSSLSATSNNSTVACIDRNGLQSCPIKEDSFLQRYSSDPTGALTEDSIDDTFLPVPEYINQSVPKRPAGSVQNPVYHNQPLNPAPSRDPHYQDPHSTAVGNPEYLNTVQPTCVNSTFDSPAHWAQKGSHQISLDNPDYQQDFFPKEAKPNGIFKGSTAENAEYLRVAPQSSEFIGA
Sequence of Epidermal growth factor receptor (Homo sapiens, UniProt P00533) (P00533 whole entry): as the sequence (P00533 whole entry, looked up, stated change not applied) above

IC50 (BaF3 [1]): 7.6 nM
Compound: C=CC(=O)Nc1cccc(N(C(=O)OCc2ccc(F)cc2)c2ccnc(Nc3cnn(C)c3)n2)c1
IC50 [2]: 15 nM
Ratio IC50 [3]: 0.22
IC50 [4]: 34 nM

IC50 (BaF3 [5]): 397 nM
IC50 (BaF3 [8]): 12.8 nM
Compound: COc1c(F)cccc1Nc1c(-c2ccncc2OCC(C)(C)OC)[nH]c2c1C(=O)NCC2
Ratio IC50 [3]: 25.9
IC50 [6]: 15.3 nM
IC50 [7]: 11.9 nM

Compound: COc1c(Cl)cccc1Nc1c(-c2ccncc2C#C[C@@]2(C)CCCN2C(=O)/C=C/CN(C)C)[nH]c2c1C(=O)NCC2
IC50 [2]: 6.22 nM
IC50 [4]: 5.62 nM
IC50 [9]: 16.7 nM
IC50 [10]: 7.7 nM

IC50 (BaF3 [11]): 3.8 nM
IC50 (BaF3 [15]): 40 nM
Compound: CN(C)C/C=C/C(=O)Nc1cc2c(Nc3ccc(F)c(Cl)c3)ncnc2cc1O[C@H]1CCOC1 [AFATINIB]
IC50 [12]: 2.7 nM
IC50 [13]: 46 nM
IC50 [14]: 163 nM
IC50 [16]: 102 nM
Ratio IC50 [3]: 0.08

Compound: C=CC(=O)N[C@H]1C=C(C)c2c(-c3cnc4ccccc4c3)c3c(N)ncnc3n2C1 [CLN-081]
IC50 (BaF3 [11]): 676 nM
IC50 [12]: 5 nM
IC50 [13]: 5 nM
IC50 [14]: 5 nM
IC50 [16]: 5 nM
IC50 (NIH3T3 [17]): 368 nM
IC50 (NIH3T3 [18]): < 4.48 nM
IC50 (NIH3T3 [19]): 78.2 nM
IC50 (NIH3T3 [20]): 23.4 nM
IC50 (NIH3T3 [21]): 66.7 nM
IC50 (BaF3 [22]): 5 nM
IC50 (BaF3 [23]): 5 nM
IC50 [24]: 8 nM
IC50 [25]: 7.4 nM

IC50 (BaF3 [11]): 71 nM
IC50 (BaF3 [15]): 2320 nM
Compound: C#Cc1cccc(Nc2ncnc3cc(OCCOC)c(OCCOC)cc23)c1 [ERLOTINIB]
IC50 [12]: 214 nM
IC50 [13]: 1340 nM
IC50 [14]: 3480 nM
IC50 [16]: 2700 nM
Ratio IC50 [3]: 0.05

IC50 (BaF3 [11]): 34.5 nM
IC50 (BaF3 [15]): 4.3 nM
Compound: C=CC(=O)Nc1cc(Nc2ncc(C(=O)OC(C)C)c(-c3cn(C)c4ccccc34)n2)c(OC)cc1N(C)CCN(C)C [MOBOCERTINIB]
IC50 [12]: 11.8 nM
IC50 [13]: 10.9 nM
IC50 [14]: 22.5 nM
IC50 [16]: 18.1 nM
Ratio IC50 [3]: 3.17
Ratio IC50 [26]: 1.5
Ratio IC50 [27]: 1.5
Ratio IC50 [28]: 1.5
Ratio IC50 [29]: 1.5

Compound: C=CC(=O)Nc1cc(Nc2nccc(-c3cn(C)c4ccccc34)n2)c(OC)cc1N(C)CCN(C)C [OSIMERTINIB]
IC50 (BaF3 [11]): 350 nM
IC50 [12]: 87 nM
IC50 [13]: 173 nM
IC50 [14]: 576 nM
IC50 (BaF3 [15]): 57 nM
IC50 [16]: 469 nM
Ratio IC50 [3]: 2.02

IC50 (BaF3 [34]): 1 nM
Compound: C=CC(=O)N1CCC(Oc2cc3c(Nc4ccc(Cl)c(Cl)c4F)ncnc3cc2OC)CC1 [POZIOTINIB]
IC50 [30]: 0.7 nM
IC50 [31]: 4.8 nM
IC50 [32]: 2.7 nM
IC50 [33]: 2.2 nM
Ratio IC50 (BaF3 [35]): ~40
IC50 [36]: 1.8 nM
IC50 [37]: 0.3 nM

IC50 (BaF3 [11]): 12.7 nM
hepatocyte CLint at 100 µM [38]: 2.77 µL/min/1e6 cells
Compound: C=CC(=O)Nc1cc(Nc2nccc(Nc3cc(Cl)c(F)cc3C(C)(C)O)n2)c(OC)cc1N1CC[C@@H](N(C)C)C1 [SUNVOZERTINIB]
IC50 [13]: 22.1 nM
IC50 [16]: 29.6 nM
Ratio IC50 [3]: 0.57

Compound: CN(C)C/C=C/C(=O)Nc1cc2c(Nc3ccc(Cl)c(Br)c3)ncnc2cn1 [TH-4000E]
IC50 [30]: < 0.5 nM
IC50 [31]: 7.6 nM
IC50 [32]: 7.3 nM
IC50 [33]: 9.9 nM
IC50 [39]: 72 nM

IC50 (BaF3 [1]): ~1000 nM
Compound: C=CC(=O)Nc1cc2c(Nc3ccc(OCc4ccccn4)c(Cl)c3)ncnc2cc1OCCN1CCOCC1 [TUXOBERTINIB]
IC50 [2]: < 100 nM
